pIC50: −log10 of the molar value.
Test system: 997726-040-R-J2-PDC tumor spheroids, viability
Assay: Anticancer human tumor 997726-040-R-J2-PDC patient-derived squamous cell lung carcinoma cell line growth inhibition [PI3K]
Conditions: spheroids with HUVEC and MSC; for pIC50: curve of first compound; for viability, T/C: stronger effect = lower value; active = viability on the fitted dose curve at most 10% of control; inactive = the rest
Source text: Combinatorial screen of targeted agents with the PI3K inhibitors inavolisib, alpelisib, duvelisib, and copanlisib in multi-cell type tumor spheroids
A high-throughput screen of multi-cell type tumor spheroids was designed to identify active combinations of targeted small molecules and PI3K pathway inhibitors. Complex spheroids include a stromal component modeled by human endothelial cells (HUVEC) and fibroblasts modeled by human mesenchymal stem cells (MSCs). The concentration ranges selected for each drug and investigational agent were based upon clinically achievable concentrations if the clinical Cmax of the agent was known.
Compounds. The drugs and investigational agents: inavolisib (NSC800729), alpelisib (NSC765974), duvelisib (NSC772469), copanlisib (NSC816437), ipatasertib (NSC767898), afuresertib (NSC778305), talazoparib (NSC767125), sapanisertib (NSC764658), selumetinib (NSC741078), tovorafenib (DAY101, NSC766906), vemurafenib (NSC761431), ravoxertinib (NSC781343), sotorasib (NSC818433), MRTX1133 (NSC 836407), abemaciclib (NSC 768073), palbociclib (NSC758247), venetoclax (NSC 766270), SY5609 (NSC837396), enzalutamide (NSC755605), and darolutamide (NSC825331), were obtained from the National Cancer Institute (NCI) Developmental Therapeutics Program Chemical Repository. The FDA-approved anticancer drug set is available from the NCI Developmental Therapeutics Program. […] The stock solutions were prepared in dimethyl sulfoxide (DMSO, Sigma-Aldrich, St. Louis, MO, cat. D2650) at 800-fold the tested concentration and stored at -70 degrees C prior to their use. All drugs and investigational agents were tested over a range starting from a high concentration at or near the clinical Cmax and decreasing in half-log increments. If the clinical Cmax for an agent had not been determined, the highest concentration tested was 10 microM.
Cell Culture. All cells were maintained in an incubator at 37 degrees C and 5% CO2 with 95% humidity. The PDC lines were cultured according to standard operating procedures established by the NCI PDMR (https://pdmr.cancer.gov/sops/default.htm). All PDCs were thawed and cultured in Matrigel-coated flasks prepared with a working solution of 1X Ham's F-12 nutrient mix, without supplementation (Invitrogen, Waltham, MA, cat. 11765054), 100 U/mL penicillin-streptomycin (Invitrogen, cat. 15140122), and 2.5% Matrigel (Corning Inc., Corning, NY, cat. 354248) for the first three passages. The 354836-022-R-J1-PDC, 475296-252-R-J1-PDC, and 997726-040-R-J2-PDC lines were cultured in 6A media, which includes advanced DMEM/F-12 (Thermo Fisher Scientific, cat. 12634028), 10 mM HEPES (Thermo Fisher Scientific, cat. 15630080), 1X GlutaMAX supplement (Thermo Fisher Scientific, cat. 35050061), 0.1 mg/mL primocin (InvivoGen, San Diego, CA, cat. ant-pm-2), 10% defined fetal bovine serum, heat inactivated (HyClone Laboratories Inc., Logan, UT, cat. SH30070.03HI), 50% L-WRN conditioned media (ATCC, cat. CRL-3276), 1.25 mM N-Acetyl-L-cysteine (Sigma-Aldrich, cat. A9165), 10 mM nicotinamide (Sigma-Aldrich, cat. N0636), 1X B-27 supplement (Thermo Fisher Scientific, cat. 17504044), 1X N-2 supplement (Thermo Fisher Scientific, cat. 17502048), and 10 microM Y-27632 dihydrochloride (Tocris Bioscience, Bristol, United Kingdom, cat. 1254). The 624824-186-R-J2-PDC line was cultured in 6C/Colon 1B media, which includes all 6A media components plus 50 ng/mL human EGF recombinant protein (Thermo Fisher Scientific, cat. PHG0311). […]
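Also: spheroids exposed to compounds for seven days before readout.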

CC(C)n1nc(-c2ccc3oc(N)nc3c2)c2c(N)ncnc21 + CC(Nc1ncnc2nc[nH]c12)c1cc2cccc(Cl)c2c(=O)n1-c1ccccc1
inactive: viability, T/C (second compound 0.0316 µM, first compound 0.000316 µM) 99.1% | viability, T/C (second compound 0.0316 µM, first compound 0.001 µM) 89.6% | viability, T/C (second compound 0.0316 µM, first compound 0.00316 µM) 77.3% | viability, T/C (second compound 0.0316 µM, first compound 0.01 µM) 62.1% | viability, T/C (second compound 0.0316 µM, first compound 0.0316 µM) 50% | viability, T/C (second compound 0.0316 µM, first compound 0.1 µM) 18% | viability, T/C (second compound 0.1 µM, first compound 0.000316 µM) 99.3% | viability, T/C (second compound 0.1 µM, first compound 0.001 µM) 88.2% | viability, T/C (second compound 0.1 µM, first compound 0.00316 µM) 80.2% | viability, T/C (second compound 0.1 µM, first compound 0.01 µM) 64% | viability, T/C (second compound 0.1 µM, first compound 0.0316 µM) 48.6% | viability, T/C (second compound 0.1 µM, first compound 0.1 µM) 19.5% | viability, T/C (second compound 0.316 µM, first compound 0.000316 µM) 93.2% | viability, T/C (second compound 0.316 µM, first compound 0.001 µM) 90.7% | viability, T/C (second compound 0.316 µM, first compound 0.00316 µM) 75.3% | viability, T/C (second compound 0.316 µM, first compound 0.01 µM) 62.8% | viability, T/C (second compound 0.316 µM, first compound 0.0316 µM) 48.7% | viability, T/C (second compound 0.316 µM, first compound 0.1 µM) 17.4% | viability, T/C (second compound 1 µM, first compound 0.000316 µM) 86.2% | viability, T/C (second compound 1 µM, first compound 0.001 µM) 83.1% | viability, T/C (second compound 1 µM, first compound 0.00316 µM) 70.2% | viability, T/C (second compound 1 µM, first compound 0.01 µM) 63.8% | viability, T/C (second compound 1 µM, first compound 0.0316 µM) 43.4% | viability, T/C (second compound 1 µM, first compound 0.1 µM) 17% | viability, T/C (second compound 3.16 µM, first compound 0.000316 µM) 75.4% | viability, T/C (second compound 3.16 µM, first compound 0.001 µM) 65.2% | viability, T/C (second compound 3.16 µM, first compound 0.00316 µM) 53.2% | viability, T/C (second compound 3.16 µM, first compound 0.01 µM) 45.4% | viability, T/C (second compound 3.16 µM, first compound 0.0316 µM) 39.4% | viability, T/C (second compound 3.16 µM, first compound 0.1 µM) 16.7% | viability, T/C (second compound 10 µM, first compound 0.000316 µM) 56.8% | viability, T/C (second compound 10 µM, first compound 0.001 µM) 51.4% | viability, T/C (second compound 10 µM, first compound 0.00316 µM) 50% | viability, T/C (second compound 10 µM, first compound 0.01 µM) 41.8% | viability, T/C (second compound 10 µM, first compound 0.0316 µM) 31.2% | viability, T/C (second compound 10 µM, first compound 0.1 µM) 11.9%
7.63: pIC50 (second compound 0.0316 µM)
7.68: pIC50 (second compound 1 µM)
8.21: pIC50 (second compound 3.16 µM)
8.60: pIC50 (second compound 10 µM)
7.62: pIC50 (second compound 0.316 µM)
7.60: pIC50 (second compound 0.1 µM)

COc1c(OCCCN2CCOCC2)ccc2c3n(c(=NC(=O)c4cnc(N)nc4)nc12)CCN3
inactive: viability, T/C (compound 0.00316 µM) 82.3% [middle of 8 runs] | viability, T/C (compound 0.01 µM) 58.9% [middle of 8 runs] | viability, T/C (compound 0.0316 µM) 36.3% [middle of 8 runs] | viability, T/C (compound 0.1 µM) 22.1% [middle of 8 runs]
active: viability, T/C (compound 0.316 µM) 4.98% [middle of 8 runs] | viability, T/C (compound 1 µM) 1.19% [middle of 8 runs]
15.9 nM [middle of 8 runs]: IC50 (compound alone, run of 06/13/2023)

CC1(C)CCC(Nc2ncc(C(F)(F)F)c(-c3c[nH]c4c(P(C)(C)=O)c(C#N)ccc34)n2)CN1 (centres undefined)
inactive: viability, T/C (compound 0.0316 µM) 45.6% [middle of 4 runs] | viability, T/C (compound 0.1 µM) 42.6% [middle of 4 runs] | viability, T/C (compound 0.316 µM) 48% [middle of 4 runs] | viability, T/C (compound 1 µM) 44% [middle of 4 runs] | viability, T/C (compound 10 µM) 23.3% [middle of 4 runs]

Reference: PubChem BioAssay AID1963964 (Molecular Pharmacology Branch, DTP, NCI, 2024)
